Measurements published in patent publication US6066656A, “2,5-diamino-3,4-disubstituted-1,6-diphenylhexane isosteres comprising benzamide, sulfonamide and anthranilamide subunits and methods of using same” (The United States of America as represented by the …, priority 1998, dated 2000).
“And” between values parts separate entries of the source, which are not always exact repeats. Identical values can stand only once. Like-named read-outs stand apart in the source and are kept apart here.

Legend:
[1] = molecular target: T1, HIV-1 protease (wild-type, WT) (Human immunodeficiency virus type 1 group M subtype B, UniProt P04585); assay: Inhibition of purified wild-type HIV-1 protease (fluorogenic substrate cleavage), Ki and % inhibition; format: biochemical; conditions: for Ki: read-out: Ki
T1 construct: purified HIV-1 protease (wild-type, WT)
Experimental: The inhibition constants (Ki) for the compounds of the above examples were determined using purified HIV-1 protease (wild-type, WT) (Tables I, II, IV and V) and R8Q and V82I mutant HIV-1 proteases (Table III). Ki is an inhibition constant of a given compound as derived by enzyme kinetics. A low Ki represents a high affinity of the compound for the enzyme, i.e., tight binding or low dissociation. Inhibition of the cleavage was assayed using a fluorogenic substrate available from Molecular Probes, Inc., Eugene, Oreg., and described in Kageyama et al., Antimicrob. Agents. Chemother., 37, 272 (1993), and a fluorogenic substrate available from Bachem California, Torrance, Calif., and described in Kageyama et al. (1993), supra. The inhibitory potencies of these compounds are set forth in Tables I-V. Percent inhibition is the percentage inhibition of an enzyme's activity by a given compound at a given concentration.

[2] = Fluorescence of compounds; format: physicochemical
Excerpt: The determination of which compounds of the present invention fluoresce can be done in accordance with methods well-known to those of ordinary skill in the art. Such fluorescence can be used to assay for antiviral activity of newly discovered compounds. For example, a fluorescent compound of the present invention can be used as a standard in an antiviral activity assay. The fluorescence of the compound can be measured in the absence and presence of a viral enzyme, such as a retroviral enzyme, in particular a retroviral protease, e.g., an HIV protease, in vitro. A test compound can then be added to the test system comprising the fluorescent compound and the enzyme. The decreased fluorescence of the fluorescent compound of the present invention in the absence and presence of the test compound can be measured and quantitated as a measure of the antiviral activity of the test compound.

HIV-1 = assay: Anti-retroviral activity in CEM cells chronically infected with HIV-1 (soluble formazan assay); format: cell-based; conditions: Human immunodeficiency virus 1, CCRF-CEM, 50% inhibition of viral activity
Experimental: The concentration of compound that inhibits 50% of viral activity (EC50 ; determined as described in Weislow et al. (1989), supra) and the inhibition constant (Ki, as defined in Example 7) for the compound were determined.

p24 synthesis = assay: Suppression of p24 synthesis; format: cell-based, HIV-1; conditions: Human immunodeficiency virus 1; read-out: concentrations suppressing p24 synthesis
CEM cells = assay: Toxicity of DD-5; format: cell-based; conditions: even at doses as high as 10^-4 M
viral activity = conditions: comparison compounds in clinical trials; cited from earlier work

| SMILES | Ki ([1]; Table IV) [nM] | Ki [1] | fluorescence [2] | EC50 (HIV-1) [nM] | EC50 (viral activity) [nM] | further results |
| --- | --- | --- | --- | --- | --- | --- |
| O=C(Nc1ccccc1C(=O)N[C@@H](Cc1ccccc1)[C@H](O)[C@H](O)[C@H](Cc1ccccc1)NC(=O)c1ccccc1NC(=O)OCc1ccccc1)OCc1ccccc1 [Compound 27] | 2.4 | 2.4 nM | good fluorescence |  |  | relative potency vs compound 26 ([1]; more potent than compound 26): 20 times |
| O=C(Nc1ccccc1C(=O)N[C@@H](Cc1ccccc1)[C@H](O)[C@H](O)[C@H](Cc1ccccc1)NC(=O)c1ccccc1NC(=O)OCc1ccccn1)OCc1ccccn1 [Compound 34] | 0.06 | 0.061 nM and 0.064 nM | good fluorescence | 3.2 |  |  |
| O=C(Nc1ccccc1C(=O)N[C@@H](Cc1ccccc1)C[C@H](O)[C@H](Cc1ccccc1)NC(=O)c1ccccc1NC(=O)OCc1ccccn1)OCc1ccccn1 [Compound 36] |  |  |  | 2.4 |  | minimal effective concentration (p24 synthesis): ≥ 0.01 µM; toxicity (CEM cells): no toxicity |
| CSC[C@H](NC(=O)COc1cccc2cnccc12)C(=O)N[C@@H](Cc1ccccc1)[C@H](O)C(=O)N1CSC[C@H]1C(=O)NC(C)(C)C [KNI272] |  |  |  |  | 4.2 |  |
| CC(C)(C)NC(=O)[C@@H]1C[C@@H]2CCCC[C@@H]2CN1C[C@@H](O)[C@H](Cc1ccccc1)NC(=O)[C@H](CC(N)=O)NC(=O)c1ccc2ccccc2n1 [Ro31-8959] |  |  |  |  | 10 |  |
